pKi: −log10 of the molar value.
Legend:
PDE IV = experiment: Isolated enzyme PDE IV inhibition (HL60 cells); type: biochemical; conditions: Ki PDE IV HL60 at (1 μM); pH 7.5, 30° C.; read-out: approximate Ki, PDE IV HL60
Procedure: The potency and selectivity of the compounds of the invention was determined using a battery of distinct PDE isoenzymes as follows:
The enzymes were purified to kinetic homogeneity using standard chromatographic techniques.
Phosphodiesterase activity was assayed as follows. The reaction was conducted in 150 μl of standard mixture containing (final concentrations): 50 mM TES-NaOH buffer (pH 7.5), 10 mM MgCl2, 0.1 μM [^3 H]-cAMP and vehicle or various concentrations of the test compounds. The reaction was initiated by addition of enzyme and conducted at 30° C. for between 5 to 30 mins. The reaction was terminated by addition of 50 μl 2% trifluoroacetic acid containing [^14 C]-5'AMP for determining recovery of the product. An aliquot of the sample was then applied to a column of neutral alumina and the [^3 H]-cAMP eluted with 10 ml 0.1 TES-NaOH buffer (pH8). The [^3 H]-5'-AMP product was eluted with 2 ml 2M NaOH into a scintillation vial containing 10 ml of scintillation cocktail. Recovery of [^3 H]-5'AMP was determined using the [^14 C]-5'AMP and all assays were conducted in the linear range of the reaction.

right atrial muscle = conditions: selective PDE IV / PDE III reference inhibitors; background statement; cited from earlier work
papillary muscle = conditions: selective PDE IV / PDE III reference inhibitors; background statement; cited from earlier work
[1] = non-specific PDE inhibitor; cited from earlier work

Row | Compound | pKi (PDE IV) | direct effects on atria (chronotropic), reference inhibitors (right atrial muscle) | direct effects on papillary muscle (inotropic), reference inhibitors (papillary muscle) | cardiovascular changes [1]
1 | COc1ccc(NC(=O)c2ccccc2)cc1OC1CCCC1 [Example 1, N-Benzoyl-3-cyclopentyloxy-4-methyloxyaniline] | ~6.41 |  |  | 
2 | COc1ccc(NC(=O)c2ccccc2[N+](=O)[O-])cc1OC1CCCC1 [Example 3, 3-Cyclopentyloxy-4-methyloxy-N-(2-Nitrobenzoyl)aniline] | ~6.75 |  |  | 
3 | Cc1[nH]c(=O)c(C#N)cc1-c1ccncc1 [milrinone] |  | positive chronotropic and inotropic effects | positive chronotropic and inotropic effects | 
4 | COc1ccc(C2CNC(=O)C2)cc1OC1CCCC1 (stereo not shown) [rolipram] |  | do not have any direct effects | do not have any direct effects | 
5 | Cn1c(=O)c2[nH]cnc2n(C)c1=O [theophylline] |  |  |  | significant cardiovascular changes such as tachycardia

Reference: US6096747A, “Phenylaminocarbonyl derivatives and processes for their preparation” (Celltech Therapeutics Limited, priority 1992, dated 2000)
